According to patent publication US10975432B2, “Tagged multi-nucleotides useful for nucleic acid sequencing” (Roche Sequencing Solutions, Inc., priority 2016, dated 2021):

Legend:
[1] = test system: α-HL-Pol6 nanopore-polymerase conjugate
[2] = test system: exonuclease deficient variant of the Pol6 polymerase; experiment: Displacement assay of single-, double-, triple- and quadruple-nucleotide substrates (Example 3); format: biochemical
From the text: The assay is a displacement assay using an exonuclease deficient variant of the Pol6 polymerase as described in Example 2, wherein polymerase activity is followed by fluorometrically monitoring the change in FRET between the Cy5 and BHQ labels as the polymerase incorporates the substrates in the DNA extension reaction.
Briefly, an assay solution containing the Pol6 polymerase, the 5′-Cy5-labelled displacement DNA template of SEQ ID NO: 124, and the 3′-BHQ-labelled quencher primer of SEQ ID NO: 124 in 75 mM potassium glutamate (“K-Glu”) is prepared in the absence of the substrate or Mg^2+ ion. A substrate solution is prepared containing either the multi-nucleotide compound to be assayed (i.e., “Y-Tag,” “W-Tag,” or “Q-Tag”), the non-tagged dT6P (“Hexa-PO4), or the tagged single nucleotide substrate, dA6P-dT30-C3 (“Full Tag”) of compound (3d). Also included in the substrate solution are the other three nucleotide-hexaphosphate (“dN6P”) substrates required for polymerase synthesis of a strand complementary to the DNA template (i.e., dA6P, dC6P, dG6P). This substrate solution is added to the polymerase solution. Assays are carried out for each of the test substrates at the following initial concentrations: 0.25 μM, 0.5 μM, 1.0 μM, 2.0 μM, 4.0 μM, and 8.0 μM. Additional K-Glu is added to bring the total K-Glu concentration in the mixture up to 300 mM. The polymerase reaction is then initiated by addition of MgCl2. Final concentrations in the assay reaction mixture are: 100 nM Pol6 enzyme, 50 nM Cy5 displacement DNA template, 40 μM each of other dN6P substrates, 300 mM K-Glu, 25 mM HEPES, 0.2 mM EDTA, 0.05% Triton X-100, 5 mM TCEP, 25 μg/mL BSA, 5 mM MgCl2, pH 7.5.

Question: For “(dC6P)2-dT20-C3: two dC6P linked via doubler-linker to tag SEQ ID NO: 105 (DNA tttttttttttttttttttt; two dC6P via doubler linker, C3 cap; (20)..(20) T-propanol)”, which Blocking current level [1] is on record?
Answer: 0.76+/−0.04 Fraction of Open Current

Question: Which Blocking current level [1] does the source give for “(dT6P)2-dT4-(N3CE-dT)3-dT13-C3: two dT6P linked via doubler-linker to tag SEQ ID NO: 106 (DNA TTTTNNNTTTTTTTTTTTTT; chemistry not fully specified)” here?
Answer: 0.62+/−0.05 Fraction of Open Current

Question: Which Blocking current level [1] does the source give for “(dA6P)2-dT5-(BHEB)-dT14-C3: two dA6P linked via doubler-linker to tag SEQ ID NO: 109 (DNA TTTTTNTTTTTTTTTTTTTT; two dA6P via doubler linker, BHEB, C3 cap, chemistry not fully specified)” here?
Answer: 0.88+/−0.03 Fraction of Open Current

Question: What does the source list for `Cc1cn([C@H]2C[C@H](O)[C@@H](COP(=O)(O)OP(=O)(O)OP(=O)(O)OP(=O)(O)OP(=O)(O)OP(=O)(O)O)O2)c(=O)[nH]c1=O` [dT6P]?
Answer: Rate (Bases/sec) ([2]; Initial Conc. Tag 0.25 μM): 0.57 Bases/sec; Rate (Bases/sec) ([2]; Initial Conc. Tag 0.5 μM): 2.87 Bases/sec; Rate (Bases/sec) ([2]; Initial Conc. Tag 1.0 μM): 3.48 Bases/sec; Rate (Bases/sec) ([2]; Initial Conc. Tag 2.0 μM): 3.89 Bases/sec; Rate (Bases/sec) ([2]; Initial Conc. Tag 4.0 μM): 4.48 Bases/sec; Rate (Bases/sec) ([2]; Initial Conc. Tag 8.0 μM): 4.24 Bases/sec

Question: How did the Blocking current level [1] turn out when “(dG6P)2-dT6-(Tmp)6-dT8-C3: two dG6P linked via doubler-linker to tag SEQ ID NO: 107 (DNA TTTTTTNNNNNNTTTTTTTT; two dG6P via doubler linker, Tmp, C3 cap; (7)..(12) thymidine methylphosphonate; (20)..(20) T-propanol)” was run?
Answer: 0.38+/−0.08 Fraction of Open Current
